#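 Five concentrations, 48 hours, 96-well plates. Here, GI50 denotes the concentration required for 50% inhibition of growth.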 The source made the active and inactive calls. Cut-off read from the data, not from the text of the source: active = GI50 up to about 1.1 µM and inactive = higher.
# Legend:
# Assay in all cases: inhibition of tumour cell growth, NCI panel, 48 h
# SN12C = test system: SN12C
# LOX IMVI = test system: LOX IMVI
# SK-OV-3 = test system: SK-OV-3
# UO-31 = test system: UO-31
# Malme-3M = test system: Malme-3M
# NCI/ADR-RES = test system: NCI/ADR-RES
# SF-268 = test system: SF-268
# BT-549 = test system: BT-549
# SF-539 = test system: SF-539
# SK-MEL-28 = test system: SK-MEL-28
# M14 = test system: M14
# SW-620 = test system: SW-620
# OVCAR-5 = test system: OVCAR-5
# NCI-H23 = test system: NCI-H23
# NCI-H522 = test system: NCI-H522
# OVCAR-8 = test system: OVCAR-8
# MDA-MB-435 = test system: MDA-MB-435
# UACC-257 = test system: UACC-257
# HCT-15 = test system: HCT-15
# Hs-578T = test system: Hs-578T
# HOP-62 = test system: HOP-62
# CAKI-1 = test system: CAKI-1
# A498 = test system: A498
# CCRF-CEM = test system: CCRF-CEM
# MCF7 = test system: MCF7
# HCC 2998 = test system: HCC 2998
# SNB-75 = test system: SNB-75
# T47D = test system: T47D
# U-251 = test system: U-251
# NCI-H226 = test system: NCI-H226
# 786-0 = test system: 786-0
# HL-60 = test system: HL-60
# HT-29 = test system: HT-29
# UACC-62 = test system: UACC-62
# TK-10 = test system: TK-10
# SR = test system: SR
# MDA-MB-231 = test system: MDA-MB-231
# DU-145 = test system: DU-145
# K562 = test system: K562
# RPMI-8226 = test system: RPMI-8226
# IGROV-1 = test system: IGROV-1
# NCI-H460 = test system: NCI-H460
# RXF 393 = test system: RXF 393
# ACHN = test system: ACHN
# PC-3 = test system: PC-3
# A549 = test system: A549
# KM12 = test system: KM12
# HCT-116 = test system: HCT-116
# HOP-92 = test system: HOP-92
# SK-MEL-2 = test system: SK-MEL-2
# SNB-19 = test system: SNB-19
# COLO 205 = test system: COLO 205
# SF-295 = test system: SF-295
# MDA-N = test system: MDA-N
# EKVX = test system: EKVX
# SK-MEL-5 = test system: SK-MEL-5
# OVCAR-3 = test system: OVCAR-3
# MOLT-4 = test system: MOLT-4
# OVCAR-4 = test system: OVCAR-4
compound,measurement,setting,value
CC1CN=C(Nc2ccccc2)S1 (centres undefined),GI50,SN12C,> 100 µM (inactive)
same,GI50,LOX IMVI,> 100 µM (inactive)
same,GI50,SK-OV-3,> 100 µM (inactive)
same,GI50,UO-31,56.8 µM (inactive)
same,GI50,Malme-3M,> 100 µM (inactive)
same,GI50,NCI/ADR-RES,> 100 µM (inactive)
same,GI50,SF-268,> 100 µM (inactive)
same,GI50,BT-549,> 100 µM (inactive)
same,GI50,SF-539,> 100 µM (inactive)
same,GI50,SK-MEL-28,> 100 µM (inactive)
same,GI50,M14,> 100 µM (inactive)
same,GI50,SW-620,> 100 µM (inactive)
same,GI50,OVCAR-5,> 100 µM (inactive)
same,GI50,NCI-H23,> 100 µM (inactive)
same,GI50,NCI-H522,> 100 µM (inactive)
same,GI50,OVCAR-8,> 100 µM (inactive)
same,GI50,MDA-MB-435,> 100 µM (inactive)
same,GI50,UACC-257,> 100 µM (inactive)
same,GI50,HCT-15,> 100 µM
same,GI50,Hs-578T,> 100 µM (inactive)
same,GI50,HOP-62,> 100 µM (inactive)
same,GI50,CAKI-1,> 100 µM (inactive)
same,GI50,A498,> 100 µM (inactive)
same,GI50,CCRF-CEM,> 100 µM (inactive)
same,GI50,MCF7,> 100 µM (inactive)
same,GI50,HCC 2998,> 100 µM (inactive)
same,GI50,SNB-75,> 100 µM (inactive)
same,GI50,T47D,> 100 µM (inactive)
same,GI50,U-251,> 100 µM (inactive)
same,GI50,NCI-H226,> 100 µM (inactive)
same,GI50,786-0,> 100 µM (inactive)
same,GI50,HL-60,> 100 µM (inactive)
same,GI50,HT-29,> 100 µM (inactive)
same,GI50,UACC-62,> 100 µM (inactive)
same,GI50,TK-10,> 100 µM (inactive)
same,GI50,SR,> 100 µM (inactive)
same,GI50,MDA-MB-231,> 100 µM (inactive)
same,GI50,DU-145,> 100 µM (inactive)
same,GI50,K562,> 100 µM (inactive)
same,GI50,RPMI-8226,> 100 µM (inactive)
same,GI50,IGROV-1,> 100 µM (inactive)
same,GI50,NCI-H460,> 100 µM (inactive)
same,GI50,RXF 393,> 100 µM (inactive)
same,GI50,ACHN,> 100 µM (inactive)
same,GI50,PC-3,> 100 µM (inactive)
same,GI50,A549,> 100 µM (inactive)
same,GI50,KM12,> 100 µM (inactive)
same,GI50,HCT-116,> 100 µM (inactive)
same,GI50,HOP-92,> 100 µM (inactive)
same,GI50,SK-MEL-2,> 100 µM (inactive)
same,GI50,SNB-19,> 100 µM (inactive)
same,GI50,COLO 205,> 100 µM (inactive)
same,GI50,SF-295,> 100 µM (inactive)
same,GI50,MDA-N,> 100 µM (inactive)
same,GI50,EKVX,> 100 µM (inactive)
same,GI50,SK-MEL-5,> 100 µM (inactive)
same,GI50,OVCAR-3,> 100 µM (inactive)
same,GI50,MOLT-4,> 100 µM (inactive)
N#CCCSC1SC(=C2SC3=C(SCCS3)S2)SC1SCCC#N (centres undefined),GI50,SN12C,> 100 µM (inactive)
same,GI50,LOX IMVI,> 100 µM (inactive)
same,GI50,UO-31,> 100 µM (inactive)
same,GI50,NCI/ADR-RES,> 100 µM (inactive)
same,GI50,SF-268,> 100 µM (inactive)
same,GI50,BT-549,> 100 µM (inactive)
same,GI50,SF-539,> 100 µM (inactive)
same,GI50,SK-MEL-28,> 100 µM (inactive)
same,GI50,M14,> 100 µM (inactive)
same,GI50,SW-620,> 100 µM (inactive)
same,GI50,OVCAR-5,> 100 µM (inactive)
same,GI50,NCI-H23,> 100 µM (inactive)
same,GI50,NCI-H522,> 100 µM (inactive)
same,GI50,OVCAR-8,> 100 µM (inactive)
same,GI50,MDA-MB-435,> 100 µM (inactive)
same,GI50,UACC-257,> 100 µM (inactive)
same,GI50,HCT-15,> 100 µM
same,GI50,Hs-578T,> 100 µM (inactive)
same,GI50,HOP-62,> 100 µM (inactive)
same,GI50,CAKI-1,> 100 µM (inactive)
same,GI50,A498,> 100 µM (inactive)
same,GI50,CCRF-CEM,> 100 µM (inactive)
same,GI50,MCF7,> 100 µM (inactive)
same,GI50,HCC 2998,> 100 µM (inactive)
same,GI50,T47D,> 100 µM (inactive)
same,GI50,OVCAR-4,> 100 µM (inactive)
same,GI50,U-251,> 100 µM (inactive)
same,GI50,786-0,> 100 µM (inactive)
same,GI50,HL-60,> 100 µM (inactive)
same,GI50,HT-29,> 100 µM (inactive)
same,GI50,UACC-62,> 100 µM (inactive)
same,GI50,TK-10,> 100 µM (inactive)
same,GI50,SR,> 100 µM (inactive)
same,GI50,MDA-MB-231,> 100 µM (inactive)
same,GI50,DU-145,> 100 µM (inactive)
same,GI50,K562,> 100 µM (inactive)
same,GI50,IGROV-1,> 100 µM (inactive)
same,GI50,NCI-H460,> 100 µM (inactive)
same,GI50,RXF 393,> 100 µM (inactive)
same,GI50,ACHN,> 100 µM (inactive)
same,GI50,PC-3,> 100 µM (inactive)
same,GI50,A549,> 100 µM (inactive)
same,GI50,HCT-116,> 100 µM (inactive)
same,GI50,HOP-92,> 100 µM (inactive)
same,GI50,SK-MEL-2,> 100 µM (inactive)
same,GI50,SNB-19,> 100 µM (inactive)
same,GI50,COLO 205,> 100 µM (inactive)
same,GI50,SF-295,> 100 µM (inactive)
same,GI50,MDA-N,> 100 µM (inactive)
same,GI50,EKVX,> 100 µM (inactive)
same,GI50,SK-MEL-5,> 100 µM (inactive)
same,GI50,OVCAR-3,> 100 µM (inactive)
same,GI50,MOLT-4,> 100 µM (inactive)
O=C1OC[C@H]2[C@@H]1[C@H]1O[C@@H]2C2=C(CCC2)C1=O,GI50,SN12C,> 100 µM (inactive)
same,GI50,LOX IMVI,> 100 µM (inactive)
same,GI50,SK-OV-3,> 100 µM (inactive)
same,GI50,UO-31,> 100 µM (inactive)
same,GI50,Malme-3M,> 100 µM (inactive)
same,GI50,NCI/ADR-RES,> 100 µM (inactive)
same,GI50,SF-268,> 100 µM (inactive)
same,GI50,BT-549,> 100 µM (inactive)
same,GI50,SF-539,> 100 µM (inactive)
same,GI50,SK-MEL-28,> 100 µM (inactive)
same,GI50,M14,> 100 µM (inactive)
same,GI50,SW-620,> 100 µM (inactive)
same,GI50,OVCAR-5,> 100 µM (inactive)
same,GI50,NCI-H23,> 100 µM (inactive)
same,GI50,NCI-H522,> 100 µM (inactive)
same,GI50,OVCAR-8,> 100 µM (inactive)
same,GI50,MDA-MB-435,> 100 µM (inactive)
same,GI50,UACC-257,> 100 µM (inactive)
same,GI50,HCT-15,> 100 µM
same,GI50,Hs-578T,> 100 µM (inactive)
same,GI50,HOP-62,> 100 µM (inactive)
same,GI50,A498,> 100 µM (inactive)
same,GI50,CCRF-CEM,> 100 µM (inactive)
same,GI50,MCF7,> 100 µM (inactive)
same,GI50,HCC 2998,> 100 µM (inactive)
same,GI50,SNB-75,> 100 µM (inactive)
same,GI50,T47D,> 100 µM (inactive)
same,GI50,OVCAR-4,> 100 µM (inactive)
same,GI50,U-251,> 100 µM (inactive)
same,GI50,NCI-H226,> 100 µM (inactive)
same,GI50,786-0,> 100 µM (inactive)
same,GI50,HL-60,> 100 µM (inactive)
same,GI50,HT-29,> 100 µM (inactive)
same,GI50,UACC-62,> 100 µM (inactive)
same,GI50,TK-10,> 100 µM (inactive)
same,GI50,SR,> 100 µM (inactive)
same,GI50,MDA-MB-231,> 100 µM (inactive)
same,GI50,DU-145,> 100 µM (inactive)
same,GI50,K562,> 100 µM (inactive)
same,GI50,RPMI-8226,> 100 µM (inactive)
same,GI50,IGROV-1,> 100 µM (inactive)
same,GI50,NCI-H460,> 100 µM (inactive)
same,GI50,RXF 393,> 100 µM (inactive)
same,GI50,ACHN,> 100 µM (inactive)
same,GI50,PC-3,> 100 µM (inactive)
same,GI50,A549,> 100 µM (inactive)
same,GI50,KM12,> 100 µM (inactive)
same,GI50,HCT-116,> 100 µM (inactive)
same,GI50,HOP-92,> 100 µM (inactive)
same,GI50,SK-MEL-2,> 100 µM (inactive)
same,GI50,SNB-19,> 100 µM (inactive)
same,GI50,COLO 205,> 100 µM (inactive)
same,GI50,SF-295,> 100 µM (inactive)
same,GI50,MDA-N,> 100 µM (inactive)
same,GI50,EKVX,> 100 µM (inactive)
same,GI50,SK-MEL-5,> 100 µM (inactive)
same,GI50,OVCAR-3,> 100 µM (inactive)
same,GI50,MOLT-4,1.11 µM (active)
